Format in all cases: cell-based
Assay [1] has as its target T1, hGIPR (Homo sapiens, UniProt P48546).
T1 sequence (P48546 22-466): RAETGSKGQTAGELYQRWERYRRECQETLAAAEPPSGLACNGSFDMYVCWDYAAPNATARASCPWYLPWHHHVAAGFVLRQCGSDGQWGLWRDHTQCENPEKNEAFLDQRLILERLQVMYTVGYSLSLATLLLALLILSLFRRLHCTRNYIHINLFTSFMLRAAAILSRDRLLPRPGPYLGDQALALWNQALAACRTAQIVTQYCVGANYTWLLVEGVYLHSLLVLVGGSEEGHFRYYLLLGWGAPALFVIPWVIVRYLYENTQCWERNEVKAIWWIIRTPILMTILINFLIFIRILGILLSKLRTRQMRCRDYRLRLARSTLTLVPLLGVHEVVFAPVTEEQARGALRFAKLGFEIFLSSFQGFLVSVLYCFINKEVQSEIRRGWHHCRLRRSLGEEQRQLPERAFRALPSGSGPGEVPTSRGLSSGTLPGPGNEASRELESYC
As to the kind of experiment: Functional cAMP activation in the presence of 0.1% casein (no HSA). Conditions: read-out: Relative cAMP EC50, hGIPR.

The target in the next assay is hGcgR (Homo sapiens, UniProt P47871). The assay is described as above. Conditions: read-out: Relative cAMP EC50, hGcgR.
Sequence of hGcgR (P47871 26-477): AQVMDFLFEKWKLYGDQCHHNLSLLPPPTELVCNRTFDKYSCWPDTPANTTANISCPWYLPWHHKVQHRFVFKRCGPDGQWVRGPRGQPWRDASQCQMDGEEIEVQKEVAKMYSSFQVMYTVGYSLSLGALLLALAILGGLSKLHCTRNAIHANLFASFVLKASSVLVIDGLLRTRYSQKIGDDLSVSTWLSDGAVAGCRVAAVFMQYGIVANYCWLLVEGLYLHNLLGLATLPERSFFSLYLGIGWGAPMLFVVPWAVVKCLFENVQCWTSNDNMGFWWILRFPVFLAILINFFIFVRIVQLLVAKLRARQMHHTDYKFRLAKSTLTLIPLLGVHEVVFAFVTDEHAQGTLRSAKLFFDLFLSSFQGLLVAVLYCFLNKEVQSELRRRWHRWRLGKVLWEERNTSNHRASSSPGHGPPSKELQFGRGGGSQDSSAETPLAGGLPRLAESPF
In the next assay the target is human GcgR (Homo sapiens, UniProt P47871). As to the kind of experiment: Functional cAMP activity in the presence of 1% HSA. Conditions: read-out: cAMP Rel EC50, hGcgR.
Sequence of human GcgR (P47871 26-477): as above
For assay [2], the target named is T1, hGIPR. Nature of the assay: Functional cAMP activity in the presence of 1% HSA. Conditions: read-out: cAMP Rel EC50, hGIPR.
The target of assay [3] is T2, hGLP-1R (Homo sapiens, UniProt P43220). As to the kind of experiment: Functional cAMP activity in the presence of 1% HSA. Conditions: read-out: cAMP Rel EC50, hGLP-1R.
T2 sequence (P43220 24-463): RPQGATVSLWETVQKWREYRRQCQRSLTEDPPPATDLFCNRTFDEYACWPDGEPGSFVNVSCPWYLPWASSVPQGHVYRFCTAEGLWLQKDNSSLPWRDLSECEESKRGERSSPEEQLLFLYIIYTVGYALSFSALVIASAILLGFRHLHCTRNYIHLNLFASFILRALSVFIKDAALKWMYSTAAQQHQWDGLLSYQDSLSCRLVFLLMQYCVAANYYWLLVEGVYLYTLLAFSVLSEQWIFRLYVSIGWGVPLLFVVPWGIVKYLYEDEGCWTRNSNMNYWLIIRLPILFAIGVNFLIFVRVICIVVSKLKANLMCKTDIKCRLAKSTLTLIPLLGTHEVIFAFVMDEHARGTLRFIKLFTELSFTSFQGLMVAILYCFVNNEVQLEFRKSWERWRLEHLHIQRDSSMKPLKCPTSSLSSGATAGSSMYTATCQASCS
The target in assay [4] is T2, hGLP-1R. Nature of the assay: Functional cAMP activation in the presence of 0.1% casein (no HSA). As to conditions: read-out: Relative cAMP EC50, hGLP-1R.
Where [5] appears, read: in the presence of 0.1% casein (no HSA), geometric mean.

pEC50: −log10 of the molar value. Where two headings read alike, the source gives them in different places. Starred links: 1 amine or outer side, 2 acyl side, 3 side chain; linkers in the order of their positions; H or OH if unused. Non-standard residues stand in square brackets, D forms with d. Residues, ends and D or L forms follow the SMILES beside them. Groups on a side chain read outwards from the residue. No end group written: not given here. *: point of attachment. C18 diacid = O=C(O)CCCCCCCCCCCCCCCCC(=O)*; αMePhe(2-F) = C[C@](N)(Cc1ccccc1F)C(=O)O; γGlu = O=C(O)[C@H](CCC(=O)[*:2])N[*:1]; αMe4Pal = C[C@](N)(Cc1ccncc1)C(=O)O; αMeY = C[C@](N)(Cc1ccc(O)cc1)C(=O)O; αMeF = C[C@](N)(Cc1ccccc1)C(=O)O; 4Pal = N[C@@H](Cc1ccncc1)C(=O)O; αMeL = CC(C)C[C@](C)(N)C(=O)O; αMeS = C[C@](N)(CO)C(=O)O; Orn = NCCC[C@H](N)C(=O)O; AEEA = NCCOCCOCC(=O)O; Aib = CC(C)(N)C(=O)O
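Wherever Relative cAMP EC50, hGIPR is given: intracellular cAMP rise after 30 min at 37 °C read by HTRF against a standard curve, scaled between buffer alone (0%) and top control ligand concentration (100%), four-parameter fit.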
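Wherever Relative cAMP EC50, hGLP-1R is given: intracellular cAMP rise after 30 min at 37 °C read by HTRF, normalized between buffer only (0%) and maximal control ligand (100%), four-parameter variable-slope fit.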
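Wherever Relative cAMP EC50, hGcgR is given: intracellular cAMP rise after 30 min at 37 °C, read by HTRF against a cAMP standard curve, scaled from buffer only (0%) to maximal control ligand response (100%).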

As for `CC[C@H](C)[C@H](NC(=O)[C@H](Cc1ccccc1)NC(=O)[C@H](C)NC(=O)C(C)(C)NC(=O)[C@H](CCC(N)=O)NC(=O)[C@H](C)NC(=O)[C@H](CCCCNC(=O)COCCOCCNC(=O)CC[C@H](NC(=O)CCCCCCCCCCCCCCCCC(=O)O)C(=O)O)NC(=O)[C@H](CCCCN)NC(=O)[C@H](CC(=O)O)NC(=O)[C@H](CC(C)C)NC(=O)[C@](C)(CC(C)C)NC(=O)[C@@H](NC(=O)[C@H](CO)NC(=O)[C@H](Cc1ccc(O)cc1)NC(=O)[C@H](CC(=O)O)NC(=O)[C@H](CO)NC(=O)[C@@H](NC(=O)[C@](C)(Cc1ccccc1F)NC(=O)[C@@H](NC(=O)CNC(=O)[C@H](CCC(N)=O)NC(=O)C(C)(C)NC(=O)[C@@H](N)Cc1ccc(O)cc1)[C@@H](C)O)[C@@H](C)O)[C@@H](C)CC)C(=O)N[C@@H](CCC(=O)O)C(=O)N[C@@H](Cc1ccc(O)cc1)C(=O)N[C@@H](CC(C)C)C(=O)N[C@@H](CCC(=O)O)C(=O)N[C@@H](CCC(=O)O)C(=O)NCC(=O)NCC(=O)N1CCC[C@H]1C(=O)N[C@@H](CO)C(=O)N[C@@H](CO)C(=O)NCC(=O)N[C@@H](C)C(=O)N1CCC[C@H]1C(=O)N1CCC[C@H]1C(=O)N1CCC[C@H]1C(=O)N[C@@H](CCC(=O)O)C(N)=O` [Example 400] (H-Y[Aib]QGT[αMePhe(2-F)]TSDYSI[αMeL]LDKK([AEEA-γGlu-C18 diacid])AQ[Aib]AFIEYLEEGGPSSGAPPPE-NH2), the pEC50 (in general, −log10 of the EC50, conventionally taken in molar units) at hGIPR [1] is 10.80; on hGcgR, 8.60; at human GcgR, 6.58; at hGIPR [2], 8.41; on hGLP-1R [3] it was 7.54; at hGLP-1R [4], 9.60.

“H-Y[Aib]QGTFTSD[4Pal]SR[αMeL]LDKK([AEEA-γGlu-C18 diacid])AQ[αMe4Pal]AFIEYLIE[Aib]GPSSGAPPPSGS-NH2 [Example 809]”: the pEC50 at hGIPR [1] (setting [5]) is 9.71; on hGcgR (setting [5]), 8.76; at human GcgR, 6.42; on hGIPR [2], 7.69; on hGLP-1R [3] it was 6.60; on hGLP-1R [4] (setting [5]) it was 8.73.

As for “H-Y[Aib]QGT[αMePhe(2-F)]TSD[4Pal][αMeS]I[αMeL]LD[Orn]K([AEEA-γGlu-C18 diacid])AQ[αMe4Pal]EFI[dE][αMeY]LVEGGPSSGAPPPESE-NH2 [Example 1156]”, the pEC50 at hGIPR [1] (setting [5]) is 10.90; at hGcgR (setting [5]) it was 8.53; at human GcgR, 6.47; at hGIPR [2] it was 8.88; on hGLP-1R [3] it was 7.33; on hGLP-1R [4] (setting [5]), 9.35.

Take “Y[Aib]QGTFTSD[4Pal]S[Orn][αMeL]LDKK([γGlu-γGlu-C18 diacid])AQ[αMe4Pal]AFIE[αMe4Pal]LIE[Aib]GPSSGEPPPSGS-NH2 [Example 989]”: the pEC50 on hGIPR [1] (setting [5]) was 9.99; at hGcgR (setting [5]) it was 8.64; at human GcgR, 6.61; at hGIPR [2], 8.10; on hGLP-1R [3], 6.40; at hGLP-1R [4] (setting [5]) it was 8.41.

Turning to “Y[Aib]QGT[αMePhe(2-F)]TSD[4Pal]SI[αMeL]LD[Orn]K([AEEA-γGlu-C18 diacid])AQ[αMe4Pal][Orn]FI[dE][αMeY]LIEGGPSSGEPPPEGGGE-NH2 [Example 757]”, the pEC50 at hGIPR [1] is 11.02; at hGcgR, 8.63; on human GcgR, 6.51; on hGIPR [2], 8.74; on hGLP-1R [3], 7.51; at hGLP-1R [4], 9.63.

As for “H-Y[Aib]QGTFTSD[4Pal]S[Orn][αMeL]LDKK([AEEA-γGlu-γGlu-C18 diacid])AQ[αMe4Pal]AFIE[αMe4Pal]LIE[Aib]GPSSGEPPPSGSE-NH2 [Example 988]”, the pEC50 at hGIPR [1] (setting [5]) is 9.70; at hGcgR (setting [5]), 8.60; on human GcgR it was 6.49; at hGIPR [2], 7.93; at hGLP-1R [3], 6.13; at hGLP-1R [4] (setting [5]) it was 8.02.

Take “H-Y[Aib]QGTFTSD[4Pal]SK[αMeL]LDKK([AEEA-γGlu-C18 diacid])AQ[Aib]AFIEYLIA[Aib]GESSGEPPPSGS-NH2 [Example 287]”: the pEC50 on hGIPR [1] (setting [5]) is 10.20; on hGcgR (setting [5]), 8.60; on human GcgR, 6.54; on hGIPR [2], 8.00; on hGLP-1R [3], 6.25; on hGLP-1R [4] (setting [5]), 8.37.

For “Y[Aib]QGTFTSDFS[Orn][αMeL]LDKK([AEEA-γGlu-C18 diacid])AQ[Aib]AFIEWLLEGGHSSGAPPPGGE-NH2 [Example 273]”, the pEC50 at hGIPR [1] (setting [5]) was 9.61; at hGcgR (setting [5]) it was 8.16; on human GcgR, 5.75; on hGIPR [2], 7.66; at hGLP-1R [3], 6.29; on hGLP-1R [4] (setting [5]), 8.40.

On to `CC[C@H](C)[C@H](NC(=O)[C@H](Cc1ccccc1)NC(=O)[C@H](C)NC(=O)[C@](C)(Cc1ccncc1)NC(=O)[C@H](CCC(N)=O)NC(=O)[C@H](C)NC(=O)[C@H](CCCCNC(=O)COCCOCCNC(=O)CC[C@H](NC(=O)CC[C@H](NC(=O)CCCCCCCCCCCCCCCCC(=O)O)C(=O)O)C(=O)O)NC(=O)[C@H](CCCCN)NC(=O)[C@H](CC(=O)O)NC(=O)[C@H](CC(C)C)NC(=O)[C@](C)(CC(C)C)NC(=O)[C@H](CCC(N)=O)NC(=O)[C@H](CO)NC(=O)[C@H](Cc1ccncc1)NC(=O)[C@H](CC(=O)O)NC(=O)[C@H](CO)NC(=O)[C@@H](NC(=O)[C@H](Cc1ccccc1)NC(=O)[C@@H](NC(=O)CNC(=O)[C@H](CCC(N)=O)NC(=O)C(C)(C)NC(=O)[C@@H](N)Cc1ccc(O)cc1)[C@@H](C)O)[C@@H](C)O)C(=O)N[C@@H](CCC(=O)O)C(=O)N[C@@H](Cc1ccc(O)cc1)C(=O)N[C@@H](CC(C)C)C(=O)N[C@H](C(=O)N[C@@H](CCC(=O)O)C(=O)N[C@H](C)C(=O)NCC(=O)N1CCC[C@H]1C(=O)N[C@@H](CO)C(=O)N[C@@H](CO)C(=O)NCC(=O)N[C@@H](C)C(=O)N1CCC[C@H]1C(=O)N1CCC[C@H]1C(=O)N1CCC[C@H]1C(=O)N[C@@H](CO)C(=O)NCC(=O)N[C@@H](CO)C(=O)N[C@@H](CCC(=O)O)C(N)=O)[C@@H](C)CC` [Example 1024], for which the pEC50 on hGIPR [1] (setting [5]) is 9.36; on hGcgR (setting [5]), 7.97; on human GcgR, 6.12; on hGIPR [2] it was 7.49; on hGLP-1R [3], 6.48; on hGLP-1R [4] (setting [5]), 8.32.

Consider “H-Y[Aib]QGT[αMeF]TSD[4Pal][αMeS]I[αMeL]LD[Orn]K([γGlu-γGlu-C18 diacid])AQ[αMe4Pal]EFI[dE][αMeY]LIEGGPSSGAPPPSGE-NH2 [Example 1170]”, for which the pEC50 is 11.11 at hGIPR [1] (setting [5]); 8.61 at hGcgR (setting [5]); 6.60 on human GcgR; 9.18 on hGIPR [2]; 7.30 on hGLP-1R [3]; 9.40 at hGLP-1R [4] (setting [5]).

Take “H-Y[Aib]QGT[αMePhe(2-F)]TSD[4Pal][αMeS]I[αMeL]LD[Orn]K([γGlu-γGlu-C18 diacid])AQ[Aib][Orn]FI[dE][αMeY]LAEGGPSSGEPPPSGSEE-NH2 [Example 589]”: the pEC50 at hGIPR [1] is 10.17; at hGcgR, 8.39; at human GcgR, 6.54; on hGIPR [2], 8.42; at hGLP-1R [3] it was 7.35; on hGLP-1R [4], 9.15.

Take “H-Y[Aib]QGTFTSD[4Pal]SQ[αMeL]LDKK([AEEA-γGlu-C18 diacid])AQ[αMe4Pal]AFIEYLIE[Aib]GPSSGAPPPSGSGE [Example 889]”: the pEC50 at hGIPR [1] (setting [5]) is 9.97; on hGcgR (setting [5]), 8.39; on human GcgR, 6.16; at hGIPR [2], 7.67; at hGLP-1R [3], 6.43; at hGLP-1R [4] (setting [5]), 8.30.

For “H-Y[Aib]QGTFTSD[4Pal]S[Orn][αMeL]LD[Orn]K([γGlu-γGlu-γGlu-C18 diacid])AQ[αMe4Pal]AFIEYLIE[Aib]GPSSGAPPPSGSE-NH2 [Example 943]”, the pEC50 is 9.63 on hGIPR [1] (setting [5]); 8.18 on hGcgR (setting [5]); 6.02 at human GcgR; 7.64 at hGIPR [2]; 6.42 at hGLP-1R [3]; 8.45 at hGLP-1R [4] (setting [5]).

The values above are taken from patent US20240270821A1, “GIP/GLP1/GCG TRI-RECEPTOR AGONISTS AND USES THEREOF” (priority 2023, published 2024).
